{"source": "patent EP1433789A1", "about": "“Pyrrolopyrazines and their use as selective apoptosis inducers” (Aponetics AG, priority 2002, dated 2004)", "key": {"A20 [1]": {"system": "A20", "test": "AnnexinV/7-AAD staining", "assay_type": "cell-based, mouse", "conditions": "A20, 10 µM, 24 h treatment", "how_it_was_run": "(§1)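 Cells treated with compound at 10 µM final for 24 h, then stained with AnnexinV-GST/anti-GST Alexa 488 and 7-AAD and analysed by flow cytometry. Percent positive cells scored as 0 (<10%), 1 (10–50%) or 2 (>50%).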"}, "KB": {"system": "KB", "test": "Hoechst 33342 nuclear staining (Table 3)", "assay_type": "cell-based, human", "set-up": "key: 0 relating to no activity; 1 relating to weak activity comprising less than 50% of the cells; score 2 relating to strong activity comprising more than 50% of the cells", "how_it_was_run": "(§2)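 Adherent cells (3-5×10^3, pre-spread 24 h) or suspension cells (8-10×10^3) treated with compounds at 10, 3, 1 and 0.3 µM for 24 or 48 h, then Hoechst 33342 stained for 30 min. Apoptotic nuclear morphology scored by fluorescence microscopy: 0 none, 1 weak (<50% cells), 2 strong (>50% cells).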"}, "HeLa [2]": {"system": "HeLa", "test": "Hoechst 33342 nuclear staining (Table 3)", "assay_type": "cell-based, human", "set-up": "key: 0 relating to no activity; 1 relating to weak activity comprising less than 50% of the cells; score 2 relating to strong activity comprising more than 50% of the cells", "how_it_was_run": "as §2"}, "K562 [3]": {"system": "K562", "test": "Hoechst 33342 nuclear staining (Table 3)", "assay_type": "cell-based, human", "set-up": "key: 0 relating to no activity; 1 relating to weak activity comprising less than 50% of the cells; score 2 relating to strong activity comprising more than 50% of the cells", "how_it_was_run": "as §2"}, "Jurkat [4]": {"system": "Jurkat", "test": "Hoechst 33342 nuclear staining (Table 3)", "assay_type": "cell-based, human", "set-up": "key: 0 relating to no activity; 1 relating to weak activity comprising less than 50% of the cells; score 2 relating to strong activity comprising more than 50% of the cells", "how_it_was_run": "as §2"}, "HeLa [5]": {"system": "HeLa", "test": "MTS proliferation assay", "assay_type": "cell-based", "conditions": "Homo sapiens, 72 h incubation", "method": "(§3) The assay is performed in 96 well tissue culture plates. The cells (range : 1.5*10^3-10^4) are seeded out in 80 µl complete medium 24 h prior to compound treatment. The test compounds are added in 20 µl complete medium containing max 5% DMSO. The final compound concentrations in the assays are 10 µM, 3 µM,1 µM and 0.3 µM, respectively. The assay plates are incubated for 72 h at culture conditions. The MTS reagent is prepared according to the manufacturer's protocol (Promega G1111 ). 20 µl MTS reagent are added to each well, the assay plates are quickly spun and incubated for another 3 h at culture conditions. Subsequently, the plates are shortly shaked and absorption measured with a microplate-reader at 492 nm."}, "A20 [6]": {"system": "A20", "test": "MTS proliferation assay", "assay_type": "cell-based", "conditions": "Mus musculus, A20, 72 h incubation", "method": "as §3"}, "K562 [7]": {"system": "K562", "test": "MTS proliferation assay", "assay_type": "cell-based", "conditions": "Homo sapiens, K562, 72 h incubation", "method": "as §3"}, "Ramos": {"system": "Ramos", "test": "AnnexinV/7-AAD staining", "assay_type": "cell-based, human", "conditions": "10 µM, 24 h treatment", "how_it_was_run": "as §1"}, "HeLa [8]": {"system": "HeLa", "test": "AnnexinV/7-AAD staining", "assay_type": "cell-based, human", "conditions": "10 µM, 24 h treatment", "how_it_was_run": "as §1"}, "Jurkat [9]": {"system": "Jurkat", "test": "AnnexinV/7-AAD staining", "assay_type": "cell-based, human", "conditions": "10 µM, 24 h treatment", "how_it_was_run": "as §1"}, "HeLa [10]": {"system": "HeLa", "test": "PI staining for cell cycle distribution", "assay_type": "cell-based, human", "set-up": "key: 0 indicates no occurrence at all; 1 for weak; 2 for strong occurrence", "conditions": "HeLa 10 µM, 24 h", "method": "(§4) 1 - 2*10^5 cells are seeded into 24 well tissue culture plates and incubated for 24 h prior to compound addition. Compounds are added for 24 h in a final concentration of 3 µM or 10 µM. Adherent cells are harvested by trypsinization. The cell suspensions are fixed by adding 2 parts ice cold ethanol 100% while vortexing. Then the samples are stored for > 2 h at-20°C. Subsequently the cells are washed with PBS once and resuspended in 250 µl PBS containing 50 µg/ml PI (Calbiochem # 537059), then the samples are incubated at 37°C for 30 minutes and subsequently analyzed on a FACSCalibur™ monitoring linear PI fluorescence activity on FL2.. The readout allows the detection of a possible direct or indirect influence of the tested compounds on the cell cycle. The following events can occur: a) Generation of a subG1 peak indicative for DNA fragmentation, b) increase of the cell population arrested in G2M phase. Both events are scored by 1 for weak and 2 for strong occurrence. 0 indicates no occurrence at all. […]"}, "Jurkat [11]": {"system": "Jurkat", "test": "PI staining for cell cycle distribution", "assay_type": "cell-based, human", "set-up": "key: 0 indicates no occurrence at all; 1 for weak; 2 for strong occurrence", "conditions": "Jurkat 3 uM, 24 h", "method": "as §4"}}, "note": "pIC50: −log10 of the molar value.", "data": [{"smiles": "COc1cc2c(cc1OC)-c1cc3nc4ccccc4nc3n1C(C)C2", "note": "(stereo not drawn) [compound 8]", "values": [{"measurement": "percentage of positively stained cells (AnnexinV/7-AAD staining)", "setting": "A20 [1]", "result": "0 (Score 0 relates to less than 10%)"}, {"measurement": "Hoechst 33342 nuclear staining", "setting": "KB; 24h, conc 0.3 (µM)", "result": 0}, {"measurement": "Hoechst 33342 nuclear staining", "setting": "KB; 24h, conc 1 (µM)", "result": 0}, {"measurement": "Hoechst 33342 nuclear staining", "setting": "KB; 24h, conc 3 (µM)", "result": 0}, {"measurement": "Hoechst 33342 nuclear staining", "setting": "KB; 24h, conc 10 (µM)", "result": 0}, {"measurement": "Hoechst 33342 nuclear staining", "setting": "KB; 48h, conc 0.3 (µM)", "result": 0}, {"measurement": "Hoechst 33342 nuclear staining", "setting": "KB; 48h, conc 1 (µM)", "result": 0}, {"measurement": "Hoechst 33342 nuclear staining", "setting": "KB; 48h, conc 3 (µM)", "result": 0}, {"measurement": "Hoechst 33342 nuclear staining", "setting": "KB; 48h, conc 10 (µM)", "result": 0}, {"measurement": "Hoechst 33342 nuclear staining", "setting": "HeLa [2]; 24h, conc 0.3 (µM)", "result": 0}, {"measurement": "Hoechst 33342 nuclear staining", "setting": "HeLa [2]; 24h, conc 1 (µM)", "result": 0}, {"measurement": "Hoechst 33342 nuclear staining", "setting": "HeLa [2]; 24h, conc 3 (µM)", "result": 0}, {"measurement": "Hoechst 33342 nuclear staining", "setting": "HeLa [2]; 24h, conc 10 (µM)", "result": 0}, {"measurement": "Hoechst 33342 nuclear staining", "setting": "HeLa [2]; 48h, conc 0.3 (µM)", "result": 0}, {"measurement": "Hoechst 33342 nuclear staining", "setting": "HeLa [2]; 48h, conc 1 (µM)", "result": 0}, {"measurement": "Hoechst 33342 nuclear staining", "setting": "HeLa [2]; 48h, conc 3 (µM)", "result": "1 (1 relating to weak activity comprising less than 50% of the cells)"}, {"measurement": "Hoechst 33342 nuclear staining", "setting": "HeLa [2]; 48h, conc 10 (µM)", "result": "2 (score 2 relating to strong activity comprising more than 50% of the cells)"}, {"measurement": "Hoechst 33342 nuclear staining", "setting": "K562 [3]; K562, 24h, conc 0.3 (µM)", "result": 0}, {"measurement": "Hoechst 33342 nuclear staining", "setting": "K562 [3]; K562, 24h, conc 1 (µM)", "result": 0}, {"measurement": "Hoechst 33342 nuclear staining", "setting": "K562 [3]; K562, 24h, conc 3 (µM)", "result": 0}, {"measurement": "Hoechst 33342 nuclear staining", "setting": "K562 [3]; K562, 48h, conc 0.3 (µM)", "result": 0}, {"measurement": "Hoechst 33342 nuclear staining", "setting": "K562 [3]; K562, 48h, conc 1 (µM)", "result": "2 (score 2 relating to strong activity comprising more than 50% of the cells)"}, {"measurement": "Hoechst 33342 nuclear staining", "setting": "K562 [3]; K562, 48h, conc 3 (µM)", "result": "2 (score 2 relating to strong activity comprising more than 50% of the cells)"}, {"measurement": "Hoechst 33342 nuclear staining", "setting": "K562 [3]; K562, 48h, conc 10 (µM)", "result": "2 (score 2 relating to strong activity comprising more than 50% of the cells)"}, {"measurement": "Hoechst 33342 nuclear staining", "setting": "Jurkat [4]; 24h, conc 0.3 (µM)", "result": "1 (1 relating to weak activity comprising less than 50% of the cells)"}, {"measurement": "Hoechst 33342 nuclear staining", "setting": "Jurkat [4]; 24h, conc 1 (µM)", "result": "1 (1 relating to weak activity comprising less than 50% of the cells)"}, {"measurement": "Hoechst 33342 nuclear staining", "setting": "Jurkat [4]; 24h, conc 3 (µM)", "result": "2 (score 2 relating to strong activity comprising more than 50% of the cells)"}, {"measurement": "Hoechst 33342 nuclear staining", "setting": "Jurkat [4]; 24h, conc 10 (µM)", "result": "2 (score 2 relating to strong activity comprising more than 50% of the cells)"}, {"measurement": "Hoechst 33342 nuclear staining", "setting": "Jurkat [4]; 48h, conc 0.3 (µM)", "result": "1 (1 relating to weak activity comprising less than 50% of the cells)"}, {"measurement": "Hoechst 33342 nuclear staining", "setting": "Jurkat [4]; 48h, conc 1 (µM)", "result": "2 (score 2 relating to strong activity comprising more than 50% of the cells)"}, {"measurement": "Hoechst 33342 nuclear staining", "setting": "Jurkat [4]; 48h, conc 3 (µM)", "result": "2 (score 2 relating to strong activity comprising more than 50% of the cells)"}, {"measurement": "Hoechst 33342 nuclear staining", "setting": "Jurkat [4]; 48h, conc 10 (µM)", "result": "2 (score 2 relating to strong activity comprising more than 50% of the cells)"}, {"measurement": "pIC50", "setting": "HeLa [5]", "result": "5.00 to 6.00"}, {"measurement": "pIC50", "setting": "A20 [6]", "result": "5.00 to 6.00"}, {"measurement": "pIC50", "setting": "K562 [7]", "result": "< 5.00"}, {"measurement": "percentage of positively stained cells (AnnexinV/7-AAD staining)", "setting": "Ramos", "result": "0 (Score 0 relates to less than 10%)"}, {"measurement": "percentage of positively stained cells (AnnexinV/7-AAD staining)", "setting": "HeLa [8]", "result": "1 (score 1 relates to more than 10% but less than 50%)"}, {"measurement": "percentage of positively stained cells (AnnexinV/7-AAD staining)", "setting": "Jurkat [9]", "result": "0 (Score 0 relates to less than 10%)"}, {"measurement": "G2M (increase of the cell population arrested in G2M phase)", "setting": "HeLa [10]", "result": 0}, {"measurement": "subG1 (generation of a subG1 peak indicative for DNA fragmentation)", "setting": "HeLa [10]", "result": 1}, {"measurement": "G2M (increase of the cell population arrested in G2M phase)", "setting": "Jurkat [11]", "result": 0}, {"measurement": "subG1 (generation of a subG1 peak indicative for DNA fragmentation)", "setting": "Jurkat [11]", "result": 1}]}]}
